The source of these data is patent publication US7906556B2, “Methods of treating amyloidosis using cyclopropyl derivative aspartyl protease inhibitors” (Elan Pharmaceuticals, Inc., priority 2005, dated 2011).

Values joined by “and” are separate entries in the source; they are usually repeats but may differ in a detail not shown here. Identical values can stand only once.

T1 sequence (P21447 whole entry): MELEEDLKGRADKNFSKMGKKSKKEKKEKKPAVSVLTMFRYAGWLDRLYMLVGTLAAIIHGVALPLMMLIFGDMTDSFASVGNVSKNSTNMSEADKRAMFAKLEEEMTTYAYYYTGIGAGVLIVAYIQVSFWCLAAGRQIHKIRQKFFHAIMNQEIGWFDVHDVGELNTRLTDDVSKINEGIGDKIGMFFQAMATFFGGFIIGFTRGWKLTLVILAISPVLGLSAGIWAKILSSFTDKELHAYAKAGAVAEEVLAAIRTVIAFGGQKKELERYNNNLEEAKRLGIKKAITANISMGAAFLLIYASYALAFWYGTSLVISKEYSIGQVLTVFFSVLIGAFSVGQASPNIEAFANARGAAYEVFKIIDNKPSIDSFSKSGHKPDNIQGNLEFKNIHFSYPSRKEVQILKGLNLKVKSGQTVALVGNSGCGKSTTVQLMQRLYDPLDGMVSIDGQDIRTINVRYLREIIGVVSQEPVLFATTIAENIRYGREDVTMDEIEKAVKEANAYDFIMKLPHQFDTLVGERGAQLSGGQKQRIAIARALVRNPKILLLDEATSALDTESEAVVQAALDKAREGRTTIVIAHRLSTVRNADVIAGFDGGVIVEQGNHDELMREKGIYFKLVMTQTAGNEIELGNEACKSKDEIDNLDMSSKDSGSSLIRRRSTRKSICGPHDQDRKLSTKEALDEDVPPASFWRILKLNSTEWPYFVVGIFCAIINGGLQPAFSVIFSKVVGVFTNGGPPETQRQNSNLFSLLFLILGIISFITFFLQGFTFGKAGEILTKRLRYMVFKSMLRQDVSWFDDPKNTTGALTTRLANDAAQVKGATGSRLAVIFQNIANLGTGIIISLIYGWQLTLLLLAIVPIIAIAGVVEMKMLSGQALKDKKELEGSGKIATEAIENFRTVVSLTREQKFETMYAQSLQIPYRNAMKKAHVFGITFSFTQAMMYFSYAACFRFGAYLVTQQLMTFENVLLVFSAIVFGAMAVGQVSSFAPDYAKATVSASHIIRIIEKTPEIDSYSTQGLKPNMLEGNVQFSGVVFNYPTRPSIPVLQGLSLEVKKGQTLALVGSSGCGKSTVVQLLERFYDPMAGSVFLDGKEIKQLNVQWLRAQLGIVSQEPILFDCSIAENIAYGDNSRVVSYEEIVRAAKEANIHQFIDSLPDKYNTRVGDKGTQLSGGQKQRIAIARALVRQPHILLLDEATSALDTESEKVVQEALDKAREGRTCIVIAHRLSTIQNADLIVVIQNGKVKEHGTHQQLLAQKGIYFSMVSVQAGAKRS

The test system of one data set is beta-secretase versus catD. Description: Selectivity of compounds for inhibiting BACE over catD (ratio of IC50 values). The settings on record: each value is an average of four experimental runs; multiple values = more than one experiment. Type of data set: biochemical. The procedure:
Investigation of potential beta-secretase inhibitors produced compounds with increased selectivity for beta-secretase over other aspartyl proteases such as cathepsin D (catD), cathepsin E (catE), Human Immunodeficiency Viral (HIV) protease, and renin. Selectivity was calculated as a ratio of inhibition (IC50) values in which the inhibition of beta-secretase was compared to the inhibition of other aspartyl proteases.
The compounds of formula (I) can be selective for beta-secretase versus catD.
In the following examples, each value is an average of four experimental runs and multiple values for one compound indicate that more than one experiment was conducted.
Regarding `CC(=O)NC(Cc1cc(F)cc(F)c1)C(O)CNC1(CCC(C)C)C2CCCC21` (stereo not drawn) [Example 3.1, N-(4-(6-isopentylbicyclo[3.1.0]hexan-6-ylamino)-1-(3,5-difluorophenyl)-3-hydroxybutan-2-yl)acetamide], the “Selectivity IC50 catD/IC50 BACE” value was > 3.7 and > 3.2.

As for `CC(=O)NC(Cc1cc(F)cc(F)c1)C(O)CNC1(CCCC(C)C)CC1` (stereo not drawn) [Example 3.2, N-(1-(3,5-difluorophenyl)-3-hydroxy-4-(1-(4-methylpentyl)cyclopropylamino)butan-2-yl)acetamide], the “Selectivity IC50 catD/IC50 BACE” value worked out at 1.1.

Another data set deals with Madin-Darby Canine Kidney (MDCK) cells. As to the kind of experiment: In vitro permeability across a monolayer of MDCK cells in a transwell device. Format: in vitro ADME. The settings on record: test compound 5 μM, 2 h at 37° C., apical to basolateral. The procedure: (§1) Compounds were evaluated for permeability across a monolayer of Madin-Darby Canine Kidney (MDCK) cells in a transwell device following culturing for 4 days. Cells were grown in Dulbecco's Modified Eagle Media with Glutamax (Invitrogen Cat #10569-010) with 10% Heat Inactivated Fetal Bovine Serum (media kitchen) and Penicillin/streptomycin 40 units/mL (media kitchen) at 37° C. and 5% CO2, and were plated into 12 mm diameter transwell plates (12 wells/plate, Costar Cat#3401). A 0.5 mL of cell suspension (400,000 cells/mL) was placed on membrane and a 1.5 mL media in the bottom wells on day 1. On day 2 and day 3, cells were fed with new media. On day 4, the lower chambers were filled with modified Hank's Balanced Salt Solution (mHBSS, media kitchen) with or without 5 μM Cyclosporin A (CspA, Sigma Cat#C-3662). Media was removed from upper chambers and filled with mHBSS with or without CspA, and incubated 30 min at 37° C. with light shaking. Donor chambers were emptied, and filled with test compound at 5 μM in mHBSS. Lucifer Yellow (100 μM, LY, Sigma Cat#L-0144) was added to all of the upper chambers to test for monolayer integrity (tight junctions). Plates were incubated for 2 h at 37° C. with shaking. After 2 h, both the donor and receiver wells were sampled. The bottom chambers were read in a fluorometer to assess LY leakage, and then the media from all wells were assayed by LC/MS/MS to determine compound levels.
Take `CC(=O)NC(Cc1cc(F)cc(F)c1)C(O)CNC1(CCOCC(C)(C)C)CC1C` (single isomer, unassigned) [Example 3.8, N-(4-(2-methyl-1-(2-(neopentyloxy)ethyl)cyclopropylamino)-1-(3,5-difluorophenyl)-3-hydroxybutan-2-yl)acetamide]: the “Permeability Forward A > B” value came to 11.84 ×10⁻⁶ cm/s.

On to `CC(=O)NC(Cc1cc(F)cc(F)c1)C(O)CNC1(C(=O)NCCC(C)(C)C)CC1` (stereo not drawn) [Example 3.4, 1-(3-acetamido-4-(3,5-difluorophenyl)-2-hydroxybutylamino)-N-(3,3-dimethylbutyl)cyclopropanecarboxamide], for which the “Permeability Forward A > B” value worked out at 4.56 ×10⁻⁶ cm/s.

System in a further data set: not listed separately
The data set is described as above. Format: in vitro ADME, Canine. Conditions: dog, MDCK, test compound 5 μM, 2 h at 37° C., apical to basolateral, read-out: Permeability Forward A > B. The procedure:
as §1
On to `CC(=O)NC(Cc1cc(F)cc(F)c1)C(O)CNC1(CCOCC(C)(C)C)CC1C` (single isomer, unassigned) [Example 3.7, N-(4-(2-methyl-1-(2-(neopentyloxy)ethyl)cyclopropylamino)-1-(3,5-difluorophenyl)-3-hydroxybutan-2-yl)acetamide], for which the Papp A→B at 2 h, 5 μM stood at 8.18 ×10⁻⁶ cm/s.

Consider `CC(=O)NC(Cc1cc(F)cc(F)c1)C(O)CNC1(CCCC(C)C)CC1` (stereo not drawn) [Example 3.2, N-(1-(3,5-difluorophenyl)-3-hydroxy-4-(1-(4-methylpentyl)cyclopropylamino)butan-2-yl)acetamide], for which the Papp A→B at 2 h, 5 μM was 4.33 ×10⁻⁶ cm/s.

Regarding `CC(=O)NC(Cc1cc(F)cc(F)c1)C(O)CNC1(CSCC(C)(C)C)CC1` (stereo not drawn) [Example 3.3, N-(4-(1-((neopentylthio)methyl)cyclopropylamino)-1-(3,5-difluorophenyl)-3-hydroxybutan-2-yl)acetamide], the Papp A→B at 2 h, 5 μM worked out at 10.1 ×10⁻⁶ cm/s.

As to `CC(=O)NC(Cc1cc(F)cc(F)c1)C(O)CNC1(C(=O)NCCC(C)(C)C)CC1` (stereo not drawn) [Example 3.4, 1-(3-acetamido-4-(3,5-difluorophenyl)-2-hydroxybutylamino)-N-(3,3-dimethylbutyl)cyclopropanecarboxamide], the Papp A→B at 2 h, 5 μM was found to be 3.33 ×10⁻⁶ cm/s.

Turning to `CC(=O)NC(Cc1cc(F)cc(F)c1)C(O)CNC1(Cc2cn(CC(C)(C)C)nn2)CC1` (stereo not drawn) [Example 3.6, N-(1-(3,5-difluorophenyl)-3-hydroxy-4-(1-((1-neopentyl-1H-1,2,3-triazol-4-yl)methyl)cyclopropylamino)butan-2-yl)acetamide], the Papp A→B at 2 h, 5 μM amounted to 4.31 ×10⁻⁶ cm/s.

Consider `CC(=O)NC(Cc1cc(F)cc(F)c1)C(O)CNC1(COCCC(C)(C)C)C2CCCC21` (stereo not drawn) [Example 3.9, N-(1-(3,5-difluorophenyl)-4-(6-((3,3-dimethylbutoxy)methyl)bicyclo[3.1.0]hexan-6-ylamino)-3-hydroxybutan-2-yl)acetamide], for which the Papp A→B at 2 h, 5 μM turned out to be 4.73 ×10⁻⁶ cm/s.

With `CC(=O)NC(Cc1cc(F)cc(F)c1)C(O)CNC1(Cc2cc(C(C)(C)C)on2)CC1` (stereo not drawn) [Example 3.10, N-(4-(1-((5-tert-butylisoxazol-3-yl)methyl)cyclopropylamino)-1-(3,5-difluorophenyl)-3-hydroxybutan-2-yl)acetamide], the Papp A→B at 2 h, 5 μM stood at 9.32 ×10⁻⁶ cm/s.

With `CC(=O)NC(Cc1cc(F)cc(F)c1)C(O)CNC1(CCCCC(C)(C)C)CC1` (stereo not drawn) [Example 3.11, N-(1-(3,5-difluorophenyl)-4-(1-(5,5-dimethylhexyl)cyclopropylamino)-3-hydroxybutan-2-yl)acetamide], the Papp A→B at 2 h, 5 μM was determined as 3.31 ×10⁻⁶ cm/s.

As for `CC(=O)NC(Cc1cc(F)cc(F)c1)C(O)CNC1(C/C=C/CC(C)(C)C)CC1` (stereo not drawn) [Example 3.12, N-(1-(3,5-difluorophenyl)-4-(1-(5,5-dimethylhex-2-enyl)cyclopropylamino)-3-hydroxybutan-2-yl)acetamide], the Papp A→B at 2 h, 5 μM was 4.28 ×10⁻⁶ cm/s.

Regarding `CC(=O)NC(Cc1cc(F)cc(F)c1)C(O)CNC1(CCCn2cccn2)CC1` (stereo not drawn) [Example 3.13, N-(4-(1-(3-(1H-pyrazol-1-yl)propyl)cyclopropylamino)-1-(3,5-difluorophenyl)-3-hydroxybutan-2-yl)acetamide], the Papp A→B at 2 h, 5 μM amounted to 4.39 ×10⁻⁶ cm/s.

Consider `CC(=O)NC(Cc1cc(F)cc(F)c1)C(O)CNC1(CCCCn2cccn2)CC1` (stereo not drawn) [Example 3.14, N-(4-(1-(4-(1H-pyrazol-1-yl)butyl)cyclopropylamino)-1-(3,5-difluorophenyl)-3-hydroxybutan-2-yl)acetamide], for which the Papp A→B at 2 h, 5 μM is 3.47 ×10⁻⁶ cm/s.

With `CC(=O)NC(Cc1cc(F)cc(F)c1)C(O)CNC1(CCOCC(C)(C)C)CC1` (stereo not drawn) [Example 3.15, N-(4-(1-(2-(neopentyloxy)ethyl)cyclopropylamino)-1-(3,5-difluorophenyl)-3-hydroxybutan-2-yl)acetamide], the Papp A→B at 2 h, 5 μM is 9.74 ×10⁻⁶ cm/s.

As for `CC(=O)NC(Cc1cc(F)cc(F)c1)C(O)CNC1(C(=O)NCC(C)(C)C)CC1` (stereo not drawn) [Example 3.16, 1-(3-acetamido-4-(3,5-difluorophenyl)-2-hydroxybutylamino)-N-neopentylcyclopropanecarboxamide], the Papp A→B at 2 h, 5 μM was 6.15 ×10⁻⁶ cm/s.

Regarding `CC(=O)NC(Cc1cc(F)cc(F)c1)C(O)CNC1(C(=O)N(C)c2ccccc2)CC1` (stereo not drawn) [Example 3.18, 1-(3-acetamido-4-(3,5-difluorophenyl)-2-hydroxybutylamino)-N-methyl-N-phenylcyclopropanecarboxamide], the Papp A→B at 2 h, 5 μM stood at 4.56 ×10⁻⁶ cm/s.

For the compound `CC(=O)NC(Cc1cc(F)cc(F)c1)C(O)CNC1(Cc2c(F)cccc2F)CC1` (stereo not drawn) [Example 3.19, N-(4-(1-(2,6-difluorobenzyl)cyclopropylamino)-1-(3,5-difluorophenyl)-3-hydroxybutan-2-yl)acetamide], the Papp A→B at 2 h, 5 μM stood at 19.1 ×10⁻⁶ cm/s.

With `CC(=O)NC(Cc1cc(F)cc(F)c1)C(O)CNC1(Cc2ccccc2F)CC1` (stereo not drawn) [Example 3.20, N-(1-(3,5-difluorophenyl)-4-(1-(2-fluorobenzyl)cyclopropylamino)-3-hydroxybutan-2-yl)acetamide], the Papp A→B at 2 h, 5 μM is 21.2 ×10⁻⁶ cm/s.

System in the next data set: not listed separately
Description: Brain to plasma ratio (AUC 0-6 h) in female FVB mice. Type of data set: in vivo. Conditions: 100 mpk dose.
As to `CC(=O)NC(Cc1cc(F)cc(F)c1)C(O)CNC1(CCCC(C)(C)C)CC1` (stereo not drawn) [Example 3.5, N-(1-(3,5-difluorophenyl)-4-(1-(4,4-dimethylpentyl)cyclopropylamino)-3-hydroxybutan-2-yl)acetamide], the “Brain AUC (0-6 h)” value amounted to 28 µM·h.

The same data set, now with this note: mouse, brain and plasma, 100 mg/kg, 100 mpk dose, AUC (0-6 h).
Consider `CC(=O)NC(Cc1cc(F)cc(F)c1)C(O)CNC1(CCCC(C)(C)C)CC1` (stereo not drawn) [Example 3.5, N-(1-(3,5-difluorophenyl)-4-(1-(4,4-dimethylpentyl)cyclopropylamino)-3-hydroxybutan-2-yl)acetamide], for which the Kp is 2.1.

Still in this data set, the particulars now being: mouse, plasma, 100 mg/kg, 100 mpk dose.
As for `CC(=O)NC(Cc1cc(F)cc(F)c1)C(O)CNC1(CCCC(C)(C)C)CC1` (stereo not drawn) [Example 3.5, N-(1-(3,5-difluorophenyl)-4-(1-(4,4-dimethylpentyl)cyclopropylamino)-3-hydroxybutan-2-yl)acetamide], the AUC(0-t) came to 13 µM·h.

Another data set concerns the target T1, P-gp (Mus musculus, UniProt P21447).
T1 construct: FVB wild-type littermates, which expresses P-gp at their blood-brain barrier (BBB); from tissue; host or cells: blood-brain barrier / brain of FVB wild-type mice, compared with mdr1 a/b (-/-) mice, in vivo
As to the kind of experiment: In vivo P-gp liability assessment in mdr1 a/b (-/-) and wild type FVB mouse. The settings on record: mdr1 a/b (-/-) vs FVB wild-type mice, 2.5 mg/Kg IV, 5 min post administration, ratio of Cb/Cp. The procedure: Use of mdr1 (−/−) mouse and its FVB wild-type littermates, which expresses P-gp at their blood-brain barrier (BBB), can distinguish between a test compound of high P-gp liability from one with a more desirable low P-gp liability.
Test compounds are administered to both the mdr1 a/b (−/−) and the FVB wild-type mice (N=4/strain) intravenously at 2.5 mg/Kg through the tail vein. Plasma and brains are harvested at 5 min post administration. Test compound is extracted from tissue in parallel with calibration curves prepared from age-matched control tissues, then quantitated by LC/MS/MS. The ratio of brain concentration (Cb) to plasma concentration (Cp) is used as a measure of brain penetration according to the following formula: Brain Penetration (P)=Cb/Cp Therefore, a measure of brain penetration in the mdr1 (−/−) mouse relative to that of the wild-type animal represents an assessment of in vivo P-gp efflux, which is analogous to that determine in vitro with MDR1-MDCK cells. Calculations are made according to the following formula: Pmdr1/PFVB=In vivo Efflux
With `CNCC[C@@H](Oc1ccccc1C)c1ccccc1` [atomoxetine], the “in vivo P-gp efflux (Pmdr1/PFVB)” value amounted to 1.17.
